Experimental data taken from US20160022168A1, “BRAIN STATE DEPENDENT THERAPY FOR IMPROVED NEURAL TRAINING AND REHABILITATION” (UNIVERSITY OF LETHBRIDGE, priority 2014, published 2016).

Tests used:
[1] = system: auditory cortex; test: Population recordings in auditory cortex (A1) before, during and after tone stimulation in urethane-anesthetised rats; format: in vivo, Long Evans rats; conditions: for brain state in auditory cortex: urethane-anesthetised rats, carbachol infused into posterior hypothalamic nucleus, amphetamine 1 mg/kg IP, MK801 0.1 mg/kg i.p.
Experimental: (§1) Rats were then placed in a stereotaxic frame, and a window in the skull was prepared over primary somatosensory cortex (S1) hindlimb area (AP −1 mm; ML 2 mm; DV 1.5 mm) For auditory experiments, 8 Long Evans rats (250-350 g) were anesthetised with urethane (1.5 g/kg IP) and placed in a nasal restraint that left the ears free. A window in the skull (2×3 mm) was prepared over the primary auditory cortex. For all recordings, Applicant used silicon probes consisting of eight shanks (200 μm shank separation); each shank had 4 recording sites in a tetrode configuration (20 μm separation between sites, 160 μm^2 site area; 1-3 MOhm impedance; NeuroNexus Technologies).
To ensure that our results are not affected by differences in firing rates among animals, Applicant down sampled the multi-unit activity of all animals to match the number of spikes in the sample with the lowest firing rate.

[2] = system: primary somatosensory cortex (S1); test: Population recordings in primary somatosensory cortex (S1) before, during and after tactile stimulation in urethane-anesthetised rats; format: in vivo, Long Evans rats; conditions: for firing rate reactivation (explained variance) during the stimulation period: 1 sec intervals of spontaneous activity, FIG. 4C; for Euclidian distance between firing rate correlation matrices, evoked vs following spontaneous compared with evoked vs preceding spontaneous: FIG. 4B, paired t-test; for mean corr. coef. change of latency correlation (spontaneous vs evoked) after tactile stimulation: latency from cross-correlogram with MUA, FIG. 2E; for mean corr. coef. change of latency correlation (spontaneous vs evoked) after tactile stimulation / mean corr. coef. change of latency correlation from pairwise correlograms: mean ± SEM; for mean corr. coef. change of latency correlation from pairwise correlograms: pair-wise cross-correlograms, FIG. 2E white bars; for latency correlation after vs before stimulation (averaged values): t-test
Experimental: as §1
The time course of the experimental protocol is illustrated in FIG. 1A and FIG. 1B. […] Each recording period consisted of 10 min of spontaneous activity, followed by 20 minutes of tactile stimulation, and then another 10 min of spontaneous activity. The tactile stimulation consisted of 600 repetitions of 1 second stimulation at 20 Hz followed by 1 second without stimulation. The tactile stimulator consisted of a plastic rod attached at one end to a membrane of a speaker controlled by a computer. The other end of the rod was placed in contact with left hind limb.
In order to quantify temporal relations among neurons, Applicant calculated the mean spike latency as described previously. Briefly, for each neuron, latency is defined as the center of mass of a cross-correlogram of that neuron with the summed activity of all other simultaneously recorded cells (MUA), within a time window of 100 ms (FIG. 2A). Before calculating the center of mass, cross-correlograms were smoothed with a Gaussian kernel with SD=5 ms and normalized between 0 and 1 to discard effects of baseline activity. Thus this measure estimates the time when the corresponding neuron is most likely to fire with respect to the population activity. In addition to analysis of cross-correlograms between single neurons and multiunit activity as described above, Applicant also calculated latency from pair-wise cross-correlograms to look at temporal relations between neurons in more detail (FIG. 2E white bars).
Extracellular signals were high-pass filtered (0.1 Hz) and amplified (1,000 times) using a 64-channel amplifier (Neuralynx). Signals were then digitized at 32 kHz. Units were identified and isolated by a semiautomatic cluster cutting algorithm (available at: klustakwik.sourceforge.net), followed by manual clustering (MClust).
To ensure that our results are not affected by differences in firing rates among animals, Applicant down sampled the multi-unit activity of all animals to match the number of spikes in the sample with the lowest firing rate. […]
For this analysis Applicant only included neurons with a firing rate above 0.6 Hz.

| Molecule | replay activity (reverberation of stimulus-evoked patterns) ([1]; after NMDA receptor antagonist application) | brain state in auditory cortex [1] | firing rate reactivation (explained variance) during the stimulation period ([2]; S1) | Euclidian distance between firing rate correlation matrices, evoked vs following spontaneous compared with evoked vs preceding spontaneous ([2]; S1) | mean corr. coef. change of latency correlation (spontaneous vs evoked) after tactile stimulation ([2]; S1) | mean corr. coef. change of latency correlation from pairwise correlograms ([2]; S1) | latency correlation after vs before stimulation (averaged values) ([2]; S1) | brain state (cortical activity, LFP and unit activity) in S1 ([2]; urethane 1.5 g/kg IP, amphetamine 1 mg/kg injected in addition) | mean slope of latency correlation after stimulation ceased ([2]; S1, after stimulation FIG. 2G, ± SD) | mean slope of latency correlation, pre-stimulus spontaneous periods ([2]; S1, first three points FIG. 2G, ± SD) | mean slope of latency correlation during stimulation ([2]; S1, three points during stimulation FIG. 2G, ± SD) | duration of desynchronized state after injection ([2]; urethane-anesthetised rats, amphetamine 1 mg/kg) |
| --- | --- | --- | --- | --- | --- | --- | --- | --- | --- | --- | --- | --- |
| C[C@]12N[C@H](Cc3ccccc31)c1ccccc12 [MK801] | suppressed |  |  |  |  |  |  |  |  |  |  |  |
| C[N+](C)(C)CCOC(N)=O [carbachol] |  | desynchronization of the brain state |  |  |  |  |  |  |  |  |  |  |
| CCOC(N)=O [urethane] |  | synchronized brain state | significant firing rate reactivation | non-significant increase in similarity | −0.03±0.06 | 0.049±0.025 | not significantly different | synchronized state |  |  |  |  |
| d-Methamphetamine HCl |  |  | significant firing rate reactivation | smaller | 0.31±0.062 | 0.098±0.023 | significantly higher after stimulation |  | −0.07±0.08 | −0.01±0.1 | 0.11±0.12 | at least 30 minutes |
